Source: patent US20240398817A1, “CARDIO- AND RENOSAFE ANTIDIABETIC THERAPY” (priority 2018, published 2024)

Test system: patients with type 2 diabetes at high vascular risk
Assay: Cardiovascular and Renal Outcomes Trial: linagliptin 5 mg once daily vs placebo on top of standard of care
Type: in vivo
Settings: for Hazard ratio for hospitalised heart failure: vs placebo
Experimental: The effect of linagliptin on cardiovascular risk in adult patients with type 2 diabetes mellitus and with increased CV risk evidenced by a history of established macrovascular or renal disease (e.g. as defined herein) was evaluated in a multi-center, multi-national, randomized, double-blind parallel group trial. The trial compared the risk of experiencing a major adverse cardiovascular event (MACE) between linagliptin and placebo when these were added to and used concomitantly with standard of care treatments for diabetes (HbA1c), cardiovascular risk factors and renal disease.
The primary endpoint in this trial was the time to first occurrence of three point (3P) MACE. A major adverse cardiac event was defined as a cardiovascular death or a nonfatal myocardial infarction (MI) or a nonfatal stroke. The statistical analysis plan tested for non-inferiority for the occurrence of (3P) MACE. […] The secondary endpoint was a renal composite, defined as renal death or sustained end stage renal disease or sustained decrease of 40% or more in eGFR.
Type 2 diabetes patient with insufficient glycemic control (naïve or pre-treated with any antidiabetic background medication, excluding treatment with GLP-1 receptor agonists, DPP-4inhibitors or SGLT-2 inhibitors if ≥consecutive 7 days, e.g. having HbA1c 6.5-10%), and high risk of cardiovascular events, e.g. defined by: • albuminuria (micro or macro) and previous macrovascular disease: e.g. defined according to Condition I as indicated below; • and/or • impaired renal function: e.g. as defined according to Condition II as indicated below;
Background and aims: People with type 2 diabetes (T2D) are at increased risk for hospitalization for heart failure (hHF), particularly in the setting of concomitant cardiovascular (CV) and/or kidney disease. […] Here we present analyses of HF outcomes with the DPP-4 inhibitor linagliptin (LINA) vs. placebo (PBO) from a Cardiovascular and Renal Outcomes Trial assessing cardiovascular safety and renal microvascular outcome in patients with type 2 diabetes at high vascular risk, a large CV outcomes trial that enrolled participants with T2D at high risk for hHF due to concomitant CV and/or chronic kidney disease. Materials and methods: People with T2D and concomitant CV and/or kidney disease were randomized to receive LINA 5 mg, or PBO once daily (1:1), on top of standard of care. All hHF, CV outcomes, and deaths were centrally adjudicated, with individual and composite HF-related outcomes analyses comparing LINA vs. placebo. Investigator-reported HF-related adverse events, whether or not confirmed by adjudication, were also analyzed. A Cox proportional hazards model adjusting for region and history of HF was used for analyses of first events. Recurrent hHF events were analyzed using a negative binomial model.
Methods: The present Cardiovascular and Renal Outcomes Trial randomized people with T2D and i) concomitant CV disease with UACR >30 mg/g or ii) prevalent CKD (i.e. GFR <45 ml/min/1.73m2 and/or UACR >200 mg/g) to receive the DPP-4 inhibitor linagliptin (5 mg) or placebo once daily in a double-blind fashion. The primary CV endpoint was 3P-MACE, with a key secondary kidney endpoint (adjudicated ESKD, renal death, or sustained ≥40% decrease in eGFR from baseline) and other renal outcomes (including albuminuria and eGFR slope) also assessed. Subgroups were assessed by baseline kidney function (eGFR ≥/<45 ml/min/1.73m2and eGFR ≥/<30, 45 or 60 ml/min/1.73m2).
Adults with type 2 diabetes, HbA1c 6.5-10.0% inclusive, and high CV risk were eligible for inclusion. […] Macrovascular disease eligibility criteria was based on documented and confirmed history of myocardial infarction, coronary artery disease, stroke, carotid artery disease, or peripheral artery disease. Participants with end-stage kidney disease (ESKD), defined as eGFR <15 or requiring maintenance dialysis, were excluded.

[1] = ACE inhibitors/angiotensin receptor blockers No
[2] = ACE inhibitors/angiotensin receptor blockers Yes
[3] = Albuminuria and previous macrovascular disease plus eGFR 45-75 with an UACR >200 mg/g
[4] = Albuminuria and previous macrovascular disease plus renal impairment (eGFR 15-<45 with any UACR)
[5] = Albuminuria and previous macrovascular disease without eGFR >45 mL/min/1.73 m2
[6] = Angiotensin-converting enzyme inhibitors No
[7] = Angiotensin-converting enzyme inhibitors Yes
[8] = Angiotensin-converting enzyme inhibitors/angiotensin receptor blockers No
[9] = Angiotensin-converting enzyme inhibitors/angiotensin receptor blockers Yes
[10] = Blood pressure control SBP <140 mmHg
[11] = Blood pressure control SBP <160 mmHg
[12] = Blood pressure control SBP ≥140 mmHg
[13] = Blood pressure control SBP ≥160 mmHg

CC#CCn1c(N2CCC[C@@H](N)C2)nc2c1c(=O)n(Cc1nc(C)c3ccccc3n1)c(=O)n2C [Linagliptin, 1-[(4-methyl-quinazolin-2-yl)methyl]-3-methyl-7-(2-butyn-1-yl)-8-(3-(R)-amino-piperidin-1-yl)-xanthine]
3-point MACE: hazard ratio vs placebo [1]: 0.93 | 3-point MACE: patients with event/patients analyzed [1]: 89/634 | Key secondary kidney outcome: hazard ratio vs placebo [1]: 0.96 | Key secondary kidney outcome: patients with event/patients analyzed [1]: 62/634 | 3-point MACE: hazard ratio vs placebo [2]: 1.06 | 3-point MACE: patients with event/patients analyzed [2]: 345/2860 | Key secondary kidney outcome: hazard ratio vs placebo [2]: 1.07 | Key secondary kidney outcome: patients with event/patients analyzed [2]: 265/2860 | 3-point MACE: hazard ratio vs placebo (Age <65 years): 1.11 | 3-point MACE: patients with event/patients analyzed (Age <65 years): 154/1467 | Key secondary kidney outcome: hazard ratio vs placebo (Age <65 years): 1.05 | Key secondary kidney outcome: patients with event/patients analyzed (Age <65 years): 180/1467 | Patients with event/patients analysed, hospitalised heart failure (Age <65 years): 67/1467 | Hazard ratio for hospitalised heart failure (Age <65 years): 0.87 | 3-point MACE: hazard ratio vs placebo (Age ≥65 years): 0.97 | 3-point MACE: patients with event/patients analyzed (Age ≥65 years): 280/2027 | Key secondary kidney outcome: hazard ratio vs placebo (Age ≥65 years): 1.05 | Key secondary kidney outcome: patients with event/patients analyzed (Age ≥65 years): 147/2027 | Patients with event/patients analysed, hospitalised heart failure (Age ≥65 years): 142/2027 | Hazard ratio for hospitalised heart failure (Age ≥65 years): 0.91 | 3-point MACE: hazard ratio vs placebo [3]: 0.88 | 3-point MACE: patients with event/patients analyzed [3]: 119/647 | Key secondary kidney outcome: hazard ratio vs placebo [3]: 0.99 | Key secondary kidney outcome: patients with event/patients analyzed [3]: 74/647 | 3-point MACE: hazard ratio vs placebo [4]: 1.12 | 3-point MACE: patients with event/patients analyzed [4]: 195/1462 | Key secondary kidney outcome: hazard ratio vs placebo [4]: 1.01 | Key secondary kidney outcome: patients with event/patients analyzed [4]: 215/1462 | 3-point MACE: hazard ratio vs placebo [5]: 0.97 | Key secondary kidney outcome: hazard ratio vs placebo [5]: 1.22 | 3-point MACE: patients with event/patients analyzed (All patients): 434/3493 | Key secondary kidney outcome: patients with event/patients analyzed (All patients): 327/3493 | Patients with event/patients analysed, hospitalised heart failure (All patients): 209/3494 | Hazard ratio for hospitalised heart failure (All patients): 0.90 | Patients with event/patients analysed, hospitalised heart failure [6]: 132/1920 | Hazard ratio for hospitalised heart failure [6]: 1.02 | Patients with event/patients analysed, hospitalised heart failure [7]: 77/1574 | Hazard ratio for hospitalised heart failure [7]: 0.75 | Patients with event/patients analysed, hospitalised heart failure [8]: 48/634 | Hazard ratio for hospitalised heart failure [8]: 0.84 | Patients with event/patients analysed, hospitalised heart failure [9]: 161/2860 | Hazard ratio for hospitalised heart failure [9]: 0.92 | 3-point MACE: hazard ratio vs placebo (Antiplatelet drugs No): 1.10 | 3-point MACE: patients with event/patients analyzed (Antiplatelet drugs No): 125/1102 | Key secondary kidney outcome: hazard ratio vs placebo (Antiplatelet drugs No): 1.25 | Key secondary kidney outcome: patients with event/patients analyzed (Antiplatelet drugs No): 131/1102 | Patients with event/patients analysed, hospitalised heart failure (Antiplatelet drugs No): 61/1102 | Hazard ratio for hospitalised heart failure (Antiplatelet drugs No): 0.94 | 3-point MACE: hazard ratio vs placebo (Antiplatelet drugs Yes): 0.99 | 3-point MACE: patients with event/patients analyzed (Antiplatelet drugs Yes): 309/2392 | Key secondary kidney outcome: hazard ratio vs placebo (Antiplatelet drugs Yes): 0.94 | Key secondary kidney outcome: patients with event/patients analyzed (Antiplatelet drugs Yes): 196/2392 | Patients with event/patients analysed, hospitalised heart failure (Antiplatelet drugs Yes): 148/2392 | Hazard ratio for hospitalised heart failure (Antiplatelet drugs Yes): 0.88 | Patients with event/patients analysed, hospitalised heart failure (Atrial fibrillation No): 154/3175 | Hazard ratio for hospitalised heart failure (Atrial fibrillation No): 0.86 | Patients with event/patients analysed, hospitalised heart failure (Atrial fibrillation Yes): 55/319 | Hazard ratio for hospitalised heart failure (Atrial fibrillation Yes): 1.06 | 3-point MACE: hazard ratio vs placebo (Beta blockers No): 0.87 | 3-point MACE: patients with event/patients analyzed (Beta blockers No): 134/1414 | Key secondary kidney outcome: hazard ratio vs placebo (Beta blockers No): 1.14 | Key secondary kidney outcome: patients with event/patients analyzed (Beta blockers No): 161/1414 | Patients with event/patients analysed, hospitalised heart failure (Beta blockers No): 55/1414 | Hazard ratio for hospitalised heart failure (Beta blockers No): 0.95 | 3-point MACE: hazard ratio vs placebo (Beta blockers Yes): 1.11 | 3-point MACE: patients with event/patients analyzed (Beta blockers Yes): 300/2080 | Key secondary kidney outcome: hazard ratio vs placebo (Beta blockers Yes): 0.97 | Key secondary kidney outcome: patients with event/patients analyzed (Beta blockers Yes): 166/2080 | Patients with event/patients analysed, hospitalised heart failure (Beta blockers Yes): 154/2080 | Hazard ratio for hospitalised heart failure (Beta blockers Yes): 0.88 | Patients with event/patients analysed, hospitalised heart failure [10]: 84/1750 | Hazard ratio for hospitalised heart failure [10]: 0.68 | Patients with event/patients analysed, hospitalised heart failure [11]: 164/3017 | Hazard ratio for hospitalised heart failure [11]: 0.84 | Patients with event/patients analysed, hospitalised heart failure [12]: 125/1744 | Hazard ratio for hospitalised heart failure [12]: 1.15 | Patients with event/patients analysed, hospitalised heart failure [13]: 45/477 | Hazard ratio for hospitalised heart failure [13]: 1.24 | 3-point MACE: hazard ratio vs placebo (Body mass index <30 kg/m^2): 0.98 | 3-point MACE: patients with event/patients analyzed (Body mass index <30 kg/m^2): 191/1516 | Key secondary kidney outcome: hazard ratio vs placebo (Body mass index <30 kg/m^2): 1.14 | Key secondary kidney outcome: patients with event/patients analyzed (Body mass index <30 kg/m^2): 162/1516 | Patients with event/patients analysed, hospitalised heart failure (Body mass index <30 kg/m^2): 78/1516 | Hazard ratio for hospitalised heart failure (Body mass index <30 kg/m^2): 0.98
